Data published in ChEMBL document CHEMBL4715867, “Amycolasporins and Dibenzoyls from Lichen-Associated Amycolatopsis hippodromi and Their Antibacterial and Anti-inflammatory Activities” (J Nat Prod, 2020).
Converted amounts (≈) assume the structure as drawn. The source made the active and inactive calls. The rule behind the calls is not given here.

Columns and labels:
RAW264.7 [1] = test: Inhibition of LPS-induced NO production in mouse RAW264.7 cells preincubated for 2 hrs followed by LPS-stimulation and measured after 24 hrs by Griess reagent based assay; type: functional, cell-based; settings: dose 3.3-33 µM, time 26.0 hrs
RAW264.7 [2] = test: Inhibition of LPS-induced NO production in mouse RAW264.7 cells assessed as reduction in iNOS protein expression preincubated for 2 hrs followed by LPS-stimulation and measured after 24 hrs by Western blot analysis; type: functional, cell-based; settings: dose 3.3-33 µM, time 26.0 hrs
Bacillus subtilis = test: Antibacterial activity against Bacillus subtilis ATCC 6633 after 24 hrs by microbroth dilution method; type: functional
Staphylococcus aureus = test: Antibacterial activity against Staphylococcus aureus ATCC 25923 after 24 hrs by microbroth dilution method; type: functional
Escherichia coli = test: Antibacterial activity against Escherichia coli ATCC 25922 after 24 hrs by microbroth dilution method; type: functional
Candida albicans = test: Antifungal activity against Candida albicans MYA-2867 at 100 ug/ml after 48 hrs by microbroth dilution method; type: functional, organism-based; settings: dose 100.0 µg/ml
Candida parapsilosis = test: Antifungal activity against Candida parapsilosis ATCC 22019 at 100 ug/ml after 48 hrs by microbroth dilution method; type: functional, organism-based; settings: dose 100.0 µg/ml
Cryptococcus neoformans = test: Antifungal activity against Cryptococcus neoformans ATCC 208821 at 100 ug/ml after 72 hrs by microbroth dilution method; type: functional, organism-based; settings: dose 100.0 µg/ml

Row | SMILES | inhibition (RAW264.7 [1]) | inhibition (RAW264.7 [2]) | MIC (Bacillus subtilis) | MIC (Staphylococcus aureus) | MIC (Escherichia coli) | Activity (Candida albicans) | Activity (Candida parapsilosis) | Activity (Cryptococcus neoformans)
1 | COc1ccc(C(=O)Cc2ccc(O)cc2)c(O)c1 | Dose-dependent effect | Dose-dependent effect | – | – | – | – | – | –
2 | COC(=O)[C@]1(O)C=Cc2cnc(C(N)=O)cc21 | Dose-dependent effect | Dose-dependent effect | 25 µg/mL (≈ 107 µM) | 25 µg/mL (≈ 107 µM) | 25 µg/mL (≈ 107 µM) | inactive | inactive | inactive
3 | CO[C@@H]1CC(=O)c2cc(C(N)=O)ncc21 | – | – | 25 µg/mL (≈ 121 µM) | 25 µg/mL (≈ 121 µM) | 25 µg/mL (≈ 121 µM) | inactive | inactive | inactive
4 | NC(=O)c1cc2c(cn1)CCC2=O | – | – | 25 µg/mL (≈ 142 µM) | 25 µg/mL (≈ 142 µM) | 25 µg/mL (≈ 142 µM) | inactive | inactive | inactive
